Measured values taken from patent US8865672B2, “Prevention of tissue ischemia and related methods” (The United States of America, as represented by the …, priority 2006, dated 2014).
Peptide text beside a SMILES is read from it. * marks the point of attachment. Biotin = O=C1N[C@H]2[C@H](CS[C@H]2CCCCC(=O)*)N1

Tests used:
[1] = tested on: murine ASMC (WT, CD36 null, CD47 null); assay: Intracellular cGMP in murine ASMC; format: cell-based, mouse; conditions: WT MASMC
Description: (§1) Murine ASMC were obtained from aortic segments harvested sterilely from C57B1/6 CD47 null or CD36 null mice as described (Ray et al., Methods Cell Sci 23:185-188, 2001) and cultured in SM-GM (Cambrex)+20% FCS. In the case of CD36 null cells, culture flasks were pre-coated with 1% gelatin prior to cell plating. Wild type C57B1/6 ASMC cultures were prepared as previously described (Isenberg et al., Matrix Biol 24:110-123, 2005). Cell culture purity was determined by immunohistochemistry staining for α-smooth muscle actin. Cells were used within passage 1 to 4 to minimize overgrowth of other cell types.
HUVEC (10^4 cells/well) grown overnight in 96-well culture plates containing full growth medium with 2% FCS and weaned in growth medium without additives and 1% FCS over 24 hrs before treatment with NO donors and other agents in SM-GM without additives+0.1% BSA. Intracellular cGMP levels were determined according to the manufacturer's instructions using an enzyme immunoassay kit (Amersham Biosciences). In other experiments ASMC from wild type and CD36 or CD47 null mice were plated onto 96-well culture plates and incubated overnight in full growth medium. They were then weaned off serum as described to SM-GM+0.1% BSA and treated with NO donor and other agents as indicated. Intracellular cyclic nucleotides were determined via immunoassay.

murine ASMC (CD47 null) = assay: Murine ASMC proliferation; format: cell-based, mouse; conditions: CD47 null MASMC
Description: as §1
Proliferation of vascular cells was measured with a non-radioactive colorimetric assay (CellTiter 96, Promega, Madison, Wis.). Briefly, to each well of a 96-well culture plate (Nunc, Denmark) 5×10^3 cells were suspended in 100 μl of culture medium with indicated treatments and incubated for 72 hours at 37° C. in a 5% CO2 atmosphere. Following incubation 20 μl of tetrazolium compound/solubilization agent was added and incubation continued for 4 hours under the same conditions. The plate was then read on a MR580 Microelisa Auto Reader (Dynatech) at a wavelength of 490 nm. Appropriate zero time controls were run for all assays and the optical density readings obtained then subtracted from those obtained at 72 hours.

human platelets [2] = assay: Thrombin-induced human platelet aggregation; format: cell-based; conditions: for NO delay of thrombin-induced platelet aggregation: DEA/NO 10 μM
Outline: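 Washed human platelets in Tyrode's buffer pH 7.4 (2×10^5/μl) are stirred at 1200 rpm and 37 °C, and optical aggregation is followed for 5 min; under static conditions, A400 is tracked for 5 min instead. TSP1 agents or 1 μM peptide C6d are pre-incubated for 15 min before thrombin ± DEA/NO (10 μM).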

human platelets [3] = assay: cGMP in human platelets; format: cell-based; conditions: washed human platelets in Tyrode's buffer
Description: (§2) Fresh human platelets at 2×10^5 platelets/μl in Tyrode's buffer or PRP were pre-incubated with the indicated agents for 15 minutes and then challenged with DEA/NO for the indicated time interval at room temperature and total cGMP determined via immunoassay (Amersham, GE Healthcare, Buckinghamshire, UK). Murine WT and TSP1-null platelets were treated with DEA/NO and cGMP flux measured.

Rap1 = Rap1 pulldown assay in platelets; format: cell-based, human; conditions: thrombin
Description: Platelets were diluted to 5×10^8 platelets/mL in Tyrode's buffer and treated with various reagents for the indicated times. Immediately following treatment, platelets were pelleted at 13,000 g for 30 seconds at 4° C. and resuspended in ice-cold lysis buffer containing 20 mM HEPES (pH 7.5), 100 mM NaCl, 10 mM EGTA, 20 mM MgCl2, 8 mM α-glycerophosphate, 1% Triton X-100, 1 mM phenylmethylsulfonylfluoride, 40 mM NaF, 1 mM Na3VO4, 10 μg/mL aprotinin, and 10 μg/mL leupeptin. Lysates were centrifuged at 13,000 g for 5 minutes at 4° C. and the supernatants were incubated for 15 minutes on a tumbler at 4° C. with glutathione Sepharose 4B beads (Amersham) prebound with a GST-Ral GDS RBD fusion protein (kind gift of J. Silvio Gutkind, NIH, Bethesda, Md.). Bead complexes were washed by centrifugation at 6,000 g for 30 seconds at 4° C. followed by resuspension in 0.5 mL lysis buffer; 2 washes were performed for each sample. After the second wash, beads were resuspended in an equal volume of 2×SDS sample buffer and stored at −20° C. For Western analysis, bead-bound proteins in sample buffer were boiled for 10 minutes and subjected to electrophoresis on NuPAGE 10% Bis-Tris gels (Invitrogen, Carlsbad, Calif.), transferred to Immobilon-P PVDF membranes (Millipore, Billerica, Mass.), and blotted with rabbit polyclonal anti-Rapt (sc-65; Santa Cruz Biotechnology, Santa Cruz, Calif.).

VASP = assay: Phospho-Ser239 VASP Western blotting in platelets; format: cell-based, human; conditions: 8Br-cGMP 100 μM, TSP1 2.2 nM
Description: Washed human platelets (resuspended in Tyrode's buffer to 3×10^8 platelets/mL to a final volume of 0.5 mL) were incubated at 37° C. for 30 minutes before treatment. TSP1 was added 15 minutes prior to treatment. Immediately following treatment, platelets were pelleted at 13,000×g at 4° C. for 15 seconds and resuspended in 1 mL of a lysis buffer containing 10 mM Tris-HCl (pH 7.5), 150 mM NaCl, 1 mM EDTA, 1 mM Na3VO4, 40 mM NaF, 1 μg/mL aprotinin, 1 μg/mL leupeptin, 1 mM phenylmethysulfonylfluoride and 1% […]. This suspension was placed at 4° C. with gentle agitation for 5 minutes before centrifugation at 13000×g for 5 minutes at 4° C. 5 μg lysates were electrophoresed on 4-12% Bis-Tris NuPAGE gels, transferred to Immobilon PVDF membranes and probed with a rabbit polyclonal antiserum against Serine 239-phosphorylated VASP (Santa Cruz Biotechnology, Santa Cruz, Calif.).

[4] = tested on: murine WT and TSP1-null platelets; assay: Thrombin-induced murine platelet aggregation; format: cell-based, mouse; conditions: high shear
Description: Aggregation of human platelets under high shear conditions was assessed using a standard optical aggregometer (Lumi-Dual Aggregometer, Chrono-Log Corp., Havertown, Pa.) at 37° C. and 1200 rpm in a volume of 500 μl buffer with a final platelet concentration of 2×10^5 platelets/μl over a 5 minute interval. Pre-incubation with TSP1 and TSP1-based agents was for 15 minutes prior to addition of thrombin and/or the rapidly releasing nitric oxide donor DEA/NO. In some experiments platelets were pre-incubated with the Rap1 inhibitor GGTI-298 (10 μM) (Calbiochem, La Jolla, Calif.) for 30 minutes prior to initiating aggregation. In other high shear aggregation experiments murine platelets were prepared as above with the following modifications. Mouse blood was collected by retro-orbital bleeding of anesthetized mice using heparinized tubes. PRP was prepared and then diluted with 4 vol. of Tyrodes containing 5 mM EDTA to prevent activation. After collection by centrifugation, platelets were resuspended in 2× initial PRP volume and held at room temperature for less than 1 hour before use. […] Platelet aggregation under static conditions was assessed using a spectrophotometer (Beckman DU 640, Beckman Coulter, Fullerton, Calif.) and determined as a change in absorbance at 400 nm with continuous observation over a five minute interval. […]

[5] = tested on: VSMC and endothelial cells; assay: NO-stimulated adhesion of VSMC and endothelial cells to type I collagen (Example 9); format: cell-based; conditions: 10 μM DEA/NO
Description: Vascular cells (VSMC or endothelial) were plated at 10,000 cells/well onto 96-well plates (Maxisorb, Nunc) precoated with type I collagen (3 μg/ml). […] Plates were then washed with PBS, fixed with glutaraldehyde, stained with crystal violet, and washed. Absorbed stain was solubilized with acetic acid from fixed cells and the resulting color signal determined on a MR580Microelisa Auto Reader, (Dynatech, Alexandria, Va.) at 450 nm wavelength.

NO/cGMP signaling = assay: cGMP signaling (NO-stimulated cGMP, immunoassay); format: cell-based, human; conditions: concentration for 50% inhibition of effect
Description: (§3) Vascular cells (endothelial) or HT-1080 cells (10^4 cells/well) grown overnight in 12-well culture in SM-GM containing 2% FCS or RPMI+10% FCS respectively and then weaned off serum over 48 h before treatment with NO donors and other agents in serum/additive free medium+0.1% BSA. Intracellular cGMP levels were determined using an enzyme immunoassay (Amersham, GE Health Care, UK). In other experiments fresh washed human platelets were incubated in Tyrode's buffer and the indicated treatment agents±NO and cGMP determined.

[6] = tested on: endothelial cells and platelets; assay: NO-stimulated cGMP flux in endothelial cells and platelets (Example 9); format: cell-based, human; conditions: 10 μM DEA/NO
Description: as §3
Endothelial cells (FIG. 62C) and platelets (FIG. 62D) in basal medium without serum or Tyrode's buffer respectively were treated with the indicated peptides±NO (10 μM DEA/NO) and cGMP levels determined.

[7] = tested on: murine WT and TSP1-null platelets; assay: cGMP in murine platelets; format: cell-based, mouse; conditions: 100 μM added to Tyrode's
Description: After induction of general anesthesia with isoflurane 2%, age and sex matched C57BL/6 WT and TSP1-null mice underwent cardiac puncture. Blood was aspirated into 1 cc syringes with a 25 gauge needle containing 100 μl heparin (Heparin Lock Flush, Abbott, Chicago, Ill.), mixed with 100 μl 3% ACD and centrifuged in 1.2 ml S-Monovette separation tubes (Sarstedt, Germany). PRP was aspirated off, centrifuged, and the resulting platelet pellet was resuspended in 200 μl of Tyrode's buffer.
as §2

3TSR: recombinant type 1 repeats of TSP1
NO-stimulated cGMP [1]: inhibited NO-stimulated cGMP responses in WT
NO-stimulated proliferation (murine ASMC (CD47 null)): failed to inhibit
NO delay of thrombin-induced platelet aggregation (human platelets [2]; high shear, thrombin 0.2 U/ml): blocked the ability of NO to delay thrombin-induced aggregation
NO delay of thrombin-induced platelet aggregation (human platelets [2]; static / low shear conditions): reversed the NO delay of aggregation under static conditions
NO stimulated cGMP in platelets (human platelets [3]): inhibited NO stimulated cGMP flux

Nc1nc2c(nc(Br)n2[C@@H]2O[C@@H]3COP(=O)(O)O[C@H]3[C@H]2O)c(=O)[nH]1 [8Br-cGMP, 8-Bromo cyclic guanine monophosphate, reference compound]
Rap1 activation (GTP loading) (Rap1): inhibited this activation
VASP phosphorylation at Ser239 (VASP): stimulates VASP phosphorylation at Ser239
thrombin-induced aggregation ([4]; TSP1-null platelets): rendered TSP1-null platelets resistant to thrombin-induced aggregation
thrombin-induced aggregation ([4]; WT murine platelets): substantially inhibited aggregation of WT murine platelets

CC[C@H](C)[C@H](NC(=O)[C@@H](N)Cc1c[nH]cn1)C(=O)NCC(=O)N[C@@H](Cc1c[nH]c2ccccc12)C(=O)N[C@@H](CCCCN)C(=O)N[C@@H](CC(=O)O)C(=O)N[C@@H](Cc1ccccc1)C(=O)N[C@H](C(=O)N[C@@H](C)C(=O)N[C@@H](Cc1ccc(O)cc1)C(=O)N[C@@H](CCCNC(=N)N)C(=O)N[C@@H](Cc1c[nH]c2ccccc12)C(=O)N[C@@H](CCCNC(=N)N)C(=O)N[C@@H](CC(C)C)C(=O)N[C@@H](CO)C(=O)O)[C@@H](C)O [C6b, HIGWKDFTAYRWRLS] (H-HIGWKDFTAYRWRLS-OH)
NO-stimulated adhesion to type I collagen [5]: blocked in a dose-dependent manner
IC50 (NO/cGMP signaling): ~0.1 µM
NO-stimulated cGMP flux [6]: Blocked

CC[C@H](C)[C@H](NC(=O)CCCC[C@@H]1SC[C@@H]2NC(=O)N[C@@H]21)C(=O)NCC(=O)N[C@@H](Cc1c[nH]c2ccccc12)C(=O)N[C@@H](CCCCN)C(=O)N[C@@H](CC(=O)O)C(=O)N[C@@H](Cc1ccccc1)C(=O)N[C@H](C(=O)N[C@@H](C)C(=O)N[C@@H](Cc1ccc(O)cc1)C(=O)N[C@@H](CCCNC(=N)N)C(=O)O)[C@@H](C)O [C6d, biotin-IGWKDFTAYR] (Biotin-IGWKDFTAYR-OH)
NO-stimulated adhesion to type I collagen [5]: blocked in a dose-dependent manner
IC50 (NO/cGMP signaling): ~0.1 µM
NO-stimulated cGMP flux [6]: Blocked
NO delay of thrombin-stimulated aggregation (human platelets [2]; low shear, peptide 1 μM, 10 μM DEA/NO): completely reversed

N=C(N)NCCC[C@H](N)C(=O)O [L-arginine, reference compound]
platelet cGMP levels [7]: elevated cGMP levels in TSP1-null but not in WT platelets
